# Patent US11999727B2 (Tango Therapeutics, Inc., priority 2020, dated 2024)
# How the values were obtained:
# PRMT5 [1] = target: T1, PRMT5 (Homo sapiens, UniProt O14744); experiment: PRMT5 biochemical IC50 assay with SAM as cofactor; conditions: PRMT5, SAM as cofactor; read-out: SAM IC50
# T1 construct: purchased Viva (custom protein)
# PRMT5 [2] = target: T1, PRMT5; experiment: PRMT5 biochemical IC50 assay with no cofactor; conditions: PRMT5, no cofactor; read-out: No Cofactor/rel IC50
# Excerpt: Table 1 indicates IC50 values (μM) against PRMT5 for exemplary compounds in the presence of SAM as cofactor, with no cofactor, and with MTA as cofactor, respectively (columns 4-6). […] Ki values can be calculated from the IC50 values as described in the Examples section. As detailed in the Examples section, for the assay performed in the presence of SAM, IC50=Ki×1.5 (Ki=IC50/1.5).
# PRMT5 [3] = target: T1, PRMT5; experiment: PRMT5 biochemical IC50 assay with MTA as cofactor; conditions: PRMT5, MTA as cofactor; read-out: MTA IC50
# [4] = tested on: HAP1 MTAP-intact cell line; experiment: SDMA in-cell western assay, HAP1 MTAP-intact; format: cell-based; conditions: Homo sapiens, HAP1, SDMA in-cell western, HAP1 MTAP-intact; read-out: MTAP HAP1 intact IC50
# Summary of the method: (§1)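 Compounds were tested in HAP1 cells differing only in MTAP status (endogenous expression versus null). Cellular SDMA levels were then measured by in-cell western, giving an IC50 in each background.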
# [5] = tested on: HAP1 MTAP-deleted cell line; experiment: SDMA in-cell western assay, HAP1 MTAP-deleted; format: cell-based; conditions: for IC50: Homo sapiens, HAP1, SDMA in-cell western, HAP1 MTAP-deleted; for MTAP intact/deleted ratio: IC50 ratio HAP1 MTAP-intact / HAP1 MTAP-deleted, SDMA in-cell western
# Summary of the method: as §1
# [6] = tested on: HAP1 MTAP-deleted cell line; experiment: Viability assay, MTAP-deleted cell line; format: cell-based; conditions: Homo sapiens, HAP1, viability assay, read-out: HAP1 MTAP deleted viability
# Excerpt: Table 1 additionally indicates IC50 values in a viability assay for the MTAP-deleted cell line (column 10), indicating the effect of treatment with compound on cell survival.
# [7] = read-out: HAP1 MTAP deleted IC50
# [8] = read-out: HAP 1 MTAP deleted IC50
# T1 sequence (O14744 whole entry): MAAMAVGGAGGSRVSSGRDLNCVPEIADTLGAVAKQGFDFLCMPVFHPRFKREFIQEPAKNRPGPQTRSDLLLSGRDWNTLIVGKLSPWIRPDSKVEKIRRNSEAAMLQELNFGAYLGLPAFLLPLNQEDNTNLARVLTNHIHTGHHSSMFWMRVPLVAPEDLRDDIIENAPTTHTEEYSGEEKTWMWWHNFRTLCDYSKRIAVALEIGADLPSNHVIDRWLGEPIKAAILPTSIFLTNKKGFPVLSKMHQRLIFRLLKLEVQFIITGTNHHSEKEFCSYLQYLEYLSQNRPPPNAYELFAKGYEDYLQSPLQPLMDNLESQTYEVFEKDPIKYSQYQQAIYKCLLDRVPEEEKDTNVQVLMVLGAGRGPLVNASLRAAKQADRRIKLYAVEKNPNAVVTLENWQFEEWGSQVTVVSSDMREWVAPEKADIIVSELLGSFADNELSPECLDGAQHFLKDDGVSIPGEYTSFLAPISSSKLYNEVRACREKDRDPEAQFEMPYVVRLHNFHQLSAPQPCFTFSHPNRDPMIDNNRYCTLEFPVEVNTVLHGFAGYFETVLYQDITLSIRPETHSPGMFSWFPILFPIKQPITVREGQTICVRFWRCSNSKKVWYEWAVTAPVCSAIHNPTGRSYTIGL
# T1 sequence (Q9BQA1 whole entry partner): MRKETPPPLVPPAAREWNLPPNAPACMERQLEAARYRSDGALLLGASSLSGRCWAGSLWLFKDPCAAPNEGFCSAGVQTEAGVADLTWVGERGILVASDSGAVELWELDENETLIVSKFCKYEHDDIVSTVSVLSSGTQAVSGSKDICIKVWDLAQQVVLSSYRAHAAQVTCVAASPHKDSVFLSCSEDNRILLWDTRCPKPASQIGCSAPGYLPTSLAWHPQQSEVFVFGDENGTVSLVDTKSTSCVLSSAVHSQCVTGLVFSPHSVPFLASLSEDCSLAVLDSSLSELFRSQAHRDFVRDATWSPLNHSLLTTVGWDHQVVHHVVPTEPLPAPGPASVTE
IC50 (PRMT5 [1]) [nM],IC50 (PRMT5 [2]) [nM],IC50 (PRMT5 [3]) [nM],IC50 [4] [nM],"IC50 [5, 7] [nM]","IC50 [5, 8] [nM]",Compound,MTAP intact/deleted ratio [5],IC50 ([6]; MTAP-deleted cell line) [nM],IC50 ([6]; HAP1 MTAP-deleted) [nM]
> 500,> 500,50 to 500,> 1000,> 1000,,"NC(=O)c1cncc(NC(=O)C(=O)N2CCC3(CC2)CCS(=O)(=O)CC3)c1 [Compound 195, 5-(2-(3,3-Dioxido-3-thia-9-azaspiro[5.5]undecan-9-yl)-2-oxoacetamido)nicotinamide]",C (an IC50 ratio of less than 3 fold),> 10000,
50 to 500,> 500,< 50,> 1000,100 to 1000,,"NC(=O)c1cncc(NC(=O)C(=O)N2CCC3(CCCCC3)CC2)c1 [Compound 203, 5-[[2-(3-Azaspiro[5.5]undecan-3-yl)-2-oxo-acetyl]amino]pyridine-3-carboxamide]",A (an IC50 ratio greater than or equal to 10 fold),> 10000,
> 500,50 to 500,50 to 500,> 1000,> 1000,,"Cc1cc(NC(=O)C(=O)N2CC(C)CCC2C2CNC(=O)C2)cnc1N (stereo not shown) [Compound 210, N-(6-amino-5-methylpyridin-3-yl)-2-(5-methyl-2-(5-oxopyrrolidin-3-yl)piperidin-1-yl)-2-oxoacetamide]",B (an IC50 ratio greater than or equal to 3 fold but lower than 10 fold),> 10000,
50 to 500,> 500,50 to 500,> 1000,> 1000,,"Cc1cc(NC(=O)C(=O)N2CCCCC2C23CC(C(F)(F)F)(C2)C3)cnc1N (stereo not shown) [Compound 217, N-(6-amino-5-methyl-3-pyridyl)-2-oxo-2-[2-[3-(trifluoromethyl)-1-bicyclo[1.1.1]pentanyl]-1-piperidyl]acetamide]",B (an IC50 ratio greater than or equal to 3 fold but lower than 10 fold),> 10000,
> 500,> 500,50 to 500,> 1000,> 1000,,"CCC(C)C1CCCCN1C(=O)C(=O)Nc1cnc(N)c(C)c1 (stereo not shown) [Compound 232, N-(6-amino-5-methyl-3-pyridyl)-2-oxo-2-(2-sec-butyl-1-piperidyl)acetamide]",B (an IC50 ratio greater than or equal to 3 fold but lower than 10 fold),> 10000,
50 to 500,50 to 500,< 50,> 1000,100 to 1000,,"NC(=O)c1cncc(NC(=O)C(=O)N2CCCCC2C2CCCC2)c1 (stereo not shown) [Compound 240, 5-(2-(2-cyclopentylpiperidin-1-yl)-2-oxoacetamido)nicotinamide]",A (an IC50 ratio greater than or equal to 10 fold),> 10000,
< 50,< 50,< 50,> 1000,< 100,,"CNc1ccc([C@H]2CC[C@H](C)CN2C(=O)C(=O)Nc2cncc(C(N)=O)c2)cc1 [Compound 438, 5-[[2-[(2R,5S)-5-methyl-2-[4-(methylamino)phenyl]-1-piperidyl]-2-oxo-acetyl]amino]pyridine-3-carboxamide]",A (an IC50 ratio greater than or equal to 10 fold),< 1000,
50 to 500,50 to 500,< 50,> 1000,100 to 1000,,Cc1cc(NC(=O)C(=O)N2CC3(CCC2c2ccc(F)cc2)CC3)cnc1N (stereo not shown) [Compound 753],A (an IC50 ratio greater than or equal to 10 fold),,1000 to 10000
50 to 500,50 to 500,50 to 500,> 1000,100 to 1000,,"NC(=O)c1cncc(NC(=O)C(=O)N2CC3(CCC2c2ccc(F)cc2)CC3)c1 (stereo not shown) [Compound 776, 5-(2-(6-(4-fluorophenyl)-5-azaspiro[2.5]octan-5-yl)-2-oxoacetamido)nicotinamide]",A (an IC50 ratio greater than or equal to 10 fold),,1000 to 10000
50 to 500,50 to 500,< 50,> 1000,100 to 1000,,"CCc1cc(NC(=O)C(=O)N2C[C@@H](C)CC[C@@H]2c2ccc(F)cc2)cnc1C [Compound 779, N-(5-ethyl-6-methyl-3-pyridyl)-2-[(2R,5S)-2-(4-fluorophenyl)-5-methyl-1-piperidyl]-2-oxo-acetamide]",A (an IC50 ratio greater than or equal to 10 fold),,1000 to 10000
50 to 500,50 to 500,< 50,> 1000,,100 to 1000,"COc1cc(NC(=O)C(=O)N2C[C@@H](C)CC[C@@H]2c2ccc(F)cc2)cnc1N [Compound 979, N-(6-amino-5-methoxy-3-pyridyl)-2-[(2R,5S)-2-(4-fluorophenyl)-5-methyl-1-piperidyl]-2-oxo-acetamide]",A (an IC50 ratio greater than or equal to 10 fold),1000 to 10000,
50 to 500,50 to 500,< 50,> 1000,,< 100,"C[C@H]1CC[C@H](c2ccc(F)cc2)N(C(=O)C(=O)Nc2cnc(N)c(C3CC3)c2)C1 [Compound 989, N-(6-amino-5-cyclopropyl-3-pyridyl)-2-[(2R,5S)-2-(4-fluorophenyl)-5-methyl-1-piperidyl]-2-oxo-acetamide]",A (an IC50 ratio greater than or equal to 10 fold),< 1000,
50 to 500,< 50,< 50,> 1000,,100 to 1000,"CC(C)c1cc(NC(=O)C(=O)N2C[C@@H](C)CC[C@@H]2c2ccc(F)cc2)cnc1N [Compound 993, N-(6-amino-5-isopropyl-3-pyridyl)-2-[(2R,5S)-2-(4-fluorophenyl)-5-methyl-1-piperidyl]-2-oxo-acetamide]",A (an IC50 ratio greater than or equal to 10 fold),1000 to 10000,
50 to 500,50 to 500,< 50,> 1000,,100 to 1000,"C[C@H]1CC[C@H](c2ccc(F)cc2)N(C(=O)C(=O)Nc2cnc(N)c(OC(F)F)c2)C1 [Compound 1026, N-[6-amino-5-(difluoromethoxy)-3-pyridyl]-2-[(2R,5S)-2-(4-fluorophenyl)-5-methyl-1-piperidyl]-2-oxo-acetamide]",A (an IC50 ratio greater than or equal to 10 fold),1000 to 10000,
50 to 500,50 to 500,50 to 500,100 to 1000,,100 to 1000,"C[C@H]1CC[C@H](c2ccc(F)cc2)N(C(=O)C(=O)Nc2cnc(OC(F)(F)F)c(C(N)=O)c2)C1 [Compound 1039, 5-[[2-[(2R,5S)-2-(4-fluorophenyl)-5-methyl-1-piperidyl]-2-oxo-acetyl]amino]-2-(trifluoromethoxy)pyridine-3-carboxamide]",C (an IC50 ratio of less than 3 fold),1000 to 10000,

Compound,IC50 (PRMT5 [1]) [nM],IC50 (PRMT5 [2]) [nM],IC50 (PRMT5 [3]) [nM],IC50 [4] [nM],"IC50 [5, 7] [nM]","IC50 [5, 8] [nM]",MTAP intact/deleted ratio [5],IC50 ([6]; MTAP-deleted cell line) [nM],IC50 ([6]; HAP1 MTAP-deleted) [nM]
"C[C@@H]1CC[C@@H](c2ccc(F)cc2)N(C(=O)C(=O)Nc2cncc(C(N)=O)c2)C1 [Compound 302, 5-[[2-[(2S,5R)-2-(4-fluorophenyl)-5-methyl-1-piperidyl]-2-oxo-acetyl]amino]pyridine-3-carboxamide]",> 500,> 500,> 500,> 1000,> 1000,,C (an IC50 ratio of less than 3 fold),> 10000,
